Assay [1] has as its target T1, Alpha-1A adrenergic receptor (Bos taurus, UniProt P18130).
T1 sequence (P18130 whole entry): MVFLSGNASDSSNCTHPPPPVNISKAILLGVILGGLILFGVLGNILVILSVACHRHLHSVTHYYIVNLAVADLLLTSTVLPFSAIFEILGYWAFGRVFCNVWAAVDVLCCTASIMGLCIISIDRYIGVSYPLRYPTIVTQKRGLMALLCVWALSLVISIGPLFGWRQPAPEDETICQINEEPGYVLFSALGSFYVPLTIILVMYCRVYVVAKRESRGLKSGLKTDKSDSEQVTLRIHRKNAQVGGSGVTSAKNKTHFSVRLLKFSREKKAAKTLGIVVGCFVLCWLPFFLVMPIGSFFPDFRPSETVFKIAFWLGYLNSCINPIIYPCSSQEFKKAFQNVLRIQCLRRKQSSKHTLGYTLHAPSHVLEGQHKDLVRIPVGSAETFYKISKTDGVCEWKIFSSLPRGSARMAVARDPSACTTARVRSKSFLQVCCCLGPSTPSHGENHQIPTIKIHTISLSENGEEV
Nature of the assay: Binding affinity of compound towards Alpha-1 adrenergic receptor using [3H]prazosin 0.5 nM ligand in frontal cortex calf was determined. It is filed as tissue-based.

Assay [2] deals with T1, Alpha-1A adrenergic receptor. Nature of the assay: Inhibition of [3H]prazosin binding to Alpha-1 adrenergic receptor in bovine frontal cortex. It counts as tissue-based.
The next assay addresses Histamine H1 receptor (Rattus norvegicus, UniProt P31390). Nature of the assay: Inhibition of [3H]pyrilamine binding to Histamine H1 receptor in rat cortex.
For assay [3], the target named is Sigma non-opioid intracellular receptor 1 (Rattus norvegicus, UniProt Q9R0C9). Nature of the assay: Inhibition of [3H]DTG binding to sigma receptor in rat hippocampus. It is filed as tissue-based.
Assay [4] addresses T2, 5-hydroxytryptamine receptor 1A (Rattus norvegicus, UniProt P19327).
T2 sequence (P19327 whole entry): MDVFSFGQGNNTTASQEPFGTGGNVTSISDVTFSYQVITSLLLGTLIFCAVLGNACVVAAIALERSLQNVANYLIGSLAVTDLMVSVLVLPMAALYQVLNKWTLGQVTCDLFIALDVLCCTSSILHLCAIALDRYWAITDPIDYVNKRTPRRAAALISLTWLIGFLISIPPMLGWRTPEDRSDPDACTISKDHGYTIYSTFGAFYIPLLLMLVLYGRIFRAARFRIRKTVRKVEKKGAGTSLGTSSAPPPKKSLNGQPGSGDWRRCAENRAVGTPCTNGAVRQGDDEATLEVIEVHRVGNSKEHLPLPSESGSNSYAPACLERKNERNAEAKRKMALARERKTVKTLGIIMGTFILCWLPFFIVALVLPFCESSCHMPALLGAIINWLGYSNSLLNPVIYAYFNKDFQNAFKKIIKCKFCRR
Nature of the assay: Displacement of [3H]8-OH-DPAT from 5-hydroxytryptamine 1A receptor of rat hippocampal membranes. It is filed as cell membranes, Membrane. A general note: In a radioligand displacement assay an active substance lowers the binding of a labelled ligand.

Assay [5] has as its target T2, 5-hydroxytryptamine receptor 1A. Nature of the assay: Inhibition of forskolin-activated adenylate cyclase (cAMP) activity at 5-hydroxytryptamine 1A receptor in rat hippocampus. It counts as functional, tissue-based.
The target in assay [6] is T3, 5-hydroxytryptamine receptor 3B (Mus musculus, UniProt Q9JHJ5).
T3 sequence (Q9JHJ5 whole entry): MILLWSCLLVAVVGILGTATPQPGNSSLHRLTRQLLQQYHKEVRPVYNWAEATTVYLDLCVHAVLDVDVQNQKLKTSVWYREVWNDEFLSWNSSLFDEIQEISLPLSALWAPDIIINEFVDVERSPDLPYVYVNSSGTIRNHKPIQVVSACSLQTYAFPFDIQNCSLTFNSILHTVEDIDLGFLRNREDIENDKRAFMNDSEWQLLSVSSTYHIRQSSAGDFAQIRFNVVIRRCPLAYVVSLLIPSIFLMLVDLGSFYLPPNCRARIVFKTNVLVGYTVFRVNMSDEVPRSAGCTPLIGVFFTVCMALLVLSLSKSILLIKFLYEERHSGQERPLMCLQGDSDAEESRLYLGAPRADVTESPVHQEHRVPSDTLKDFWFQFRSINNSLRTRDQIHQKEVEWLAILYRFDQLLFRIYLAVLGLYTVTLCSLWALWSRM
Nature of the assay: Inhibition of [3H]BRL-43694 binding to 5-hydroxytryptamine 3 receptor in NG cells 108-15. It counts as cell-based.

For assay [7], the species on record is Bos taurus. Nature of the assay: Inhibition of [3H]prazosin binding to Alpha-1 adrenergic receptor of calf frontal cortex at 10e-7 M. It counts as tissue-based.
A short description of assay [8]: Inhibition of [3H]ketanserin binding to 5-hydroxytryptamine 2 receptor of bovine frontal cortex. It is filed as tissue-based, Bos taurus. The note with it: read-out: Ki.
In the next assay the target is D(1A) dopamine receptor (Bos taurus, UniProt Q95136). As to the kind of experiment: Inhibition of [3H]SCH-23390 binding to Dopamine receptor D1 of bovine striatum. It counts as tissue-based.
The next assay has as its system Rattus norvegicus. As to the kind of experiment: in vivo behavioral test for Lower Lip Retraction(LLR) (msad=minimum significant active dose) in rats. It is filed as functional.
The species entered for assay [9] is Bos taurus. Nature of the assay: Inhibition of [3H]ketanserin binding to 5-hydroxytryptamine 2 receptor of bovine frontal cortex at 10e-7 M. It is filed as tissue-based.
The target in another assay is D(2) dopamine receptor (Bos taurus, UniProt P20288). Nature of the assay: Inhibition of [3H]raclopride binding to Dopamine receptor D2 of bovine striatum. It counts as tissue-based.
For assay [10], the target named is D(2) dopamine receptor (Bos taurus) (UniProt P20288). As to the kind of experiment: Inhibition of [3H]YM-09151-2 binding to Dopamine receptor D2 of bovine striatal preparations at 10e-7 M.
For assay [11], the target named is T4, 5-hydroxytryptamine receptor 1A (Rattus norvegicus) (UniProt P19327).
T4 sequence (whole entry): T2 sequence (P19327 whole entry)
As to the kind of experiment: Inhibition of [3H]8-OH-DPAT binding to 5-hydroxytryptamine 1A receptor in rat hippocampal membranes at 10e-7 M. It is filed as cell membranes. The settings on record: Hippocampus, Membrane.

Results on 2 compounds are retold here after ChEMBL document CHEMBL1129976, “New benzocycloalkylpiperazines, potent and selective 5-HT1A receptor ligands” (J Med Chem, 1997).

One may read the Ki as the dissociation constant of the complex between target and ligand, obtained from inhibition or displacement. The IC50 is the concentration at which inhibition is half-maximal. One may read the inhibition as how much of the control response was suppressed. A higher inhibition goes with strong suppression.

Sequence of Histamine H1 receptor (P31390 whole entry): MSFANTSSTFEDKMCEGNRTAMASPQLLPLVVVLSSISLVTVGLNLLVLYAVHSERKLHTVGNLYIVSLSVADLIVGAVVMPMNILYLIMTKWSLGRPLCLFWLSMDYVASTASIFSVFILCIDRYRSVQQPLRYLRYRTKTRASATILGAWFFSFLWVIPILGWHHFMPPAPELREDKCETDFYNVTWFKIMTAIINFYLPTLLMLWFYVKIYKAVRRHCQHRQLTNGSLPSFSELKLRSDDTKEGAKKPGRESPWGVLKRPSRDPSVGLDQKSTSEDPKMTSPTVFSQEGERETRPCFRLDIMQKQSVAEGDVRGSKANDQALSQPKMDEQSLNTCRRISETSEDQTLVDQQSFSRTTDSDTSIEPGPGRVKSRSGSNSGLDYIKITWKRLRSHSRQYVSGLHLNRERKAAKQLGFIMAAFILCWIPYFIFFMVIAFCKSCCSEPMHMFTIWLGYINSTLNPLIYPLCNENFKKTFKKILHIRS
Sequence of D(1A) dopamine receptor (Q95136 whole entry): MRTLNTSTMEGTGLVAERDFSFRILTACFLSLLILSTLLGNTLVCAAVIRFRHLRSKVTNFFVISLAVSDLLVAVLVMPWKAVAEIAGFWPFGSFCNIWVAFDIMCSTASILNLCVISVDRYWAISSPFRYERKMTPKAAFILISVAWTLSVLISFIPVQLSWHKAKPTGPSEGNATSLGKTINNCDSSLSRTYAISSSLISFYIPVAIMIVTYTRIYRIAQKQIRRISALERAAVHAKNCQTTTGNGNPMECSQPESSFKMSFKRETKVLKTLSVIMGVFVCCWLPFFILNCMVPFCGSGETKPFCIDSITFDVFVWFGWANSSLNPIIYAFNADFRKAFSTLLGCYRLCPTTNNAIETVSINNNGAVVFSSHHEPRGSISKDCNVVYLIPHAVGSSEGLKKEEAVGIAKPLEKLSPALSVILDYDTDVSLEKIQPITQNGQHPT
Sequence of Sigma non-opioid intracellular receptor 1 (Q9R0C9 whole entry): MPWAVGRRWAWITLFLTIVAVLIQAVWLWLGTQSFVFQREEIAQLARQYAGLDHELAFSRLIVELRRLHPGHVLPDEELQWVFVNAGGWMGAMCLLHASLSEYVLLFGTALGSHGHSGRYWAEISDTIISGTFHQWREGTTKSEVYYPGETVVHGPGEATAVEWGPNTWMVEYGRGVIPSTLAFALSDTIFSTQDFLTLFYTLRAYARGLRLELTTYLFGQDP
Sequence of D(2) dopamine receptor (Bos taurus) (P20288 whole entry): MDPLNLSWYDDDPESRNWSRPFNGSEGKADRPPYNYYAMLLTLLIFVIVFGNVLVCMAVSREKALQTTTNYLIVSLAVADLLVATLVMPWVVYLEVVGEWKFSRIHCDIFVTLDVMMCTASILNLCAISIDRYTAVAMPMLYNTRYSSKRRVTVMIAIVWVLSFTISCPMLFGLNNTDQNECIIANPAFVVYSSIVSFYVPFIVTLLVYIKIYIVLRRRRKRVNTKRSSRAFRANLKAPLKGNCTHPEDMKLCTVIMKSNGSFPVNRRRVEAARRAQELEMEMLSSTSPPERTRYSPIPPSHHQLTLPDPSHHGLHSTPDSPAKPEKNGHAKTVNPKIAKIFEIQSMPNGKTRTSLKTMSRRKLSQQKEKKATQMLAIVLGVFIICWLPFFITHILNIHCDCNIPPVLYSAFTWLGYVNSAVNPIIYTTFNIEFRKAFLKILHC
Sequence of D(2) dopamine receptor (P20288 whole entry): as above

With `COc1cccc(OC)c1OCCNCC1COc2ccccc2O1` (stereo not given), in assay [1], the Ki was determined as 0.6 nM.
As for `O=C(CCCN1CCN(C2CCCc3ccccc32)CC1)c1ccc(F)cc1` (stereo not given), the Ki was 18 nM in [2]; 42 nM on Histamine H1 receptor; 30 nM in [3]; 17 nM in [4]; 3160 nM in [6]; 66 nM in assay [8]. The figures for the inhibition constant Ki at D(1A) dopamine receptor and on D(2) dopamine receptor were 1000 nM and 110 nM, respectively. For the same compound, in assay [5], the IC50 worked out at 210 nM. Further, the inhibition stood at 1% in the assay filed under Bos taurus [7], 20% in the assay filed under Bos taurus [9], 74% in assay [10] and 37% in [11]. The LLR msad in the assay with Rattus norvegicus is more than 64 mg/kg.
